Key:
[1] = tested on: cardiomyocytes from double knock-in human iPS cell lines (mCherry at TNNI3 locus); experiment: Experimental Example 1: mCherry (TNNI3 reporter) immunostaining measured by high contents screening; assay type: cell-based; design: key to average fluorescent intensity (at 30 μM): —: The symbol in Table 2 means that the average fluorescent intensity cannot be evaluated due to cell decrease; settings: read on 8th day, Alexa 647 anti-mCherry, control well 797; for average fluorescent intensity (at 1 μM): test compound 1 μM added on 3rd and 6th culture days; for average fluorescent intensity (at 30 μM): test compound 30 μM added on 3rd and 6th culture days
Outline: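 Double knock-in iPS lines (EmGFP at TNNI1, mCherry at TNNI3) differentiated as embryoid bodies in stirred bioreactor at 37 °C, 5% O2: BMP4/activin A/bFGF, then VEGF, IWP-3, dorsomorphin, SB431542, then VEGF alone. On day 14, dissociated cells seeded at 1.0×10^4 cells/well on iMatrix-511 in AK02-based cardiomyocyte medium.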

[2] = tested on: cardiomyocytes (embryoid bodies) from double knock-in human iPS cell lines (mCherry at TNNI3 locus); experiment: Experimental Example 2: mCherry expression in TNNI1+ cells by flow cytometry; assay type: cell-based; settings: 3 μM, 8th-16th day, DMSO control 7.8
Experimental: For detection of cardiomyocyte maturation, double knock-in human iPS cell lines, in which reporter protein sequences, EmGFP (Sequence Number 1) and mCherry (Sequence Number 2) were inserted into gene loci for TNNI1 and TNNI3, respectively, were prepared (the human iPS cells were prepared from episomal vector (loaded gene; OCT3/4, KLF4, SOX2, L-MYC, LIN28, mouse p53DD) using PBMC (LP_167, Sample ID: 20130318) purchased from CTL (reference literature; Okita K, et al. Stem Cells. 2012 Nov. 29. doi: 10.1002/stem.1293)).
The maintenance culture of the above-mentioned reporter iPS cell lines was carried out by a conventional method (Okita K, et al. Stem Cells. 2012 Nov. 29. doi: 10.1002/stem.1293).
For differentiation induction into cardiomyocytes, the reporter iPS cell lines were treated with 0.5×TrypLE select (Life Technologies, diluted in 1/2 with 0.5 mM EDTA/PBS) for 4 to 5 minutes, and the cells were exfoliated using a cell scraper (IWAKI), and then dissociated into the single cell by pipetting. The medium was removed by centrifugation (1,000 rpm, 5 min), and the obtained cells were suspended in a medium prepared by adding 1% L-glutamine, transferrin 150 μg/mL, ascorbic acid 50 μg/mL (Sigma), monothioglycerol […], 10 μM Rock inhibitor (Y-27632), 2 ng/mL BMP4 (R&D) and 0.5% Matrigel (Growth Factor Reduced) to StemPro-34 SFM (ThermoFisher) in a 6 well-plate by 2×10^6 cells/1.5 mL/well, and then subjected to static culture at 37° C., under 5% oxygen condition to form embryoid bodies (0 day).
Next day (1st day), a medium prepared by adding 1% L-glutamine, transferrin 150 μg/mL, ascorbic acid 50 μg/mL (Sigma), monothioglycerol 4><10^−4 M, 1.8 μL (concentration 12 ng/mL) of 10 μg/mL activin A, […] (concentration 10 ng/mL) of 10 μg/mL bFGF and 2.7 μL (concentration 18 ng/mL) of 10 μg/mL BMP4 to 1.5 mL of StemPro-34 SFM (ThermoFisher) was added to each well of the 6 well plate containing the embryoid bodies to adjust the volume combined with the 0 day's medium to final 3 mL (activin A: 6 ng/ml, bFGF: 5 ng/ml, BMP4: 10 ng/ml), and the embryoid bodies were cultured at 37° C. for additional 2 days, under 5% oxygen condition.
Then (3rd day), the 6 well plate containing the embryoid bodies was inclined, and then left to stand for 1 to 2 minutes until the embryoid bodies were precipitated at the edges of the wells, and the supernatant was aspirated so as not to suck the embryoid bodies. Then, IMDM (ThermoFisher) medium was added to each well, and, as above, the plate was inclined, and then left to stand for 1 to 2 minutes, and the supernatant was aspirated so as not to suck the embryoid bodies. A medium prepared by adding 1% L-glutamine, transferrin 150 μg/mL, ascorbic acid 50 μg/mL (Sigma), monothioglycerol 4×10^−4 M, 10 ng/mL VEGF, 1 μM IWP-3, 0.6 μM dorsomorphin and 5.4 μM SB431542 to 3 mL of StemPro-34 SFM (ThermoFisher) was added to each well of the 6 well plate, and then the embryoid bodies were cultured at 37° C. for 3 days, under 5% oxygen condition.
Then (6th day), the 6 well plate containing the embryoid bodies was inclined, and then left to stand for 1 to 2 minutes until the embryoid bodies were precipitated at the edges of the wells, and the supernatant was aspirated so as not to suck the embryoid bodies. […]

Row | SMILES | average fluorescent intensity (at 1 μM) [1] | average fluorescent intensity (at 30 μM) [1] | mCherry+ (%) [2] [%]
1 | O=C1c2ccc(N3CCCCC3)cc2CN1c1ccc2[nH]c(-c3ccc(O)cc3)nc2c1 [Example 4, 2-(2-(4-hydroxyphenyl)-1H-benzimidazol-5-yl)-5-(piperidin-1-yl)isoindolin-1-one] | 1621 | 894 | 58.1
2 | O=C(COc1ccc(-c2nc3cc(N4Cc5cc(N6CCCCC6)ccc5C4=O)ccc3[nH]2)cc1)Nc1ccc2c(c1)CCS2(=O)=O [Example 17, N-(1,1-dioxido-2,3-dihydro-1-benzothiophen-5-yl)-2-(4-(5-(1-oxo-5-(piperidin-1-yl)-1,3-dihydro-2H-isoindol-2-yl)-1H-benzimidazol-2-yl)phenoxy)acetamide] | 1544 | 1079 | 42.1
3 | O=C1c2ccc(N3CCCCC3)cc2CN1c1ccc2[nH]c(-c3ccncc3)nc2c1 [Example 45, 5-(piperidin-1-yl)-2-(2-(pyridin-4-yl)-1H-benzimidazol-5-yl)isoindolin-1-one] | 1130 | 814 | 66.6
4 | O=C1c2ccc(N3CCCCC3)cc2CN1c1ccc2[nH]c(-c3cccnc3)nc2c1 [Example 46, 5-(piperidin-1-yl)-2-(2-(pyridin-3-yl)-1H-benzimidazol-5-yl)isoindolin-1-one] | 1142 | 1616 | 47.2
5 | CCOc1ccc(-c2nc3cc(N4Cc5cc(N(C)C)ccc5C4=O)ccc3[nH]2)cc1 [Example 61, 5-(dimethylamino)-2-(2-(4-ethoxyphenyl)-1H-benzimidazol-5-yl)isoindolin-1-one] | 1150 |  | 
6 | CCOc1ccc(-c2nc3cc(N4Cc5cc(N6CCN(C)CC6)ccc5C4=O)ccc3[nH]2)cc1 [Example 62, 2-(2-(4-ethoxyphenyl)-1H-benzimidazol-5-yl)-5-(4-methylpiperazin-1-yl)isoindolin-1-one] | 1004 | — | 
7 | CCOc1ccc(-c2nc3cc(N4Cc5cc(-n6cccc6)ccc5C4=O)ccc3[nH]2)cc1 [Example 63, 2-(2-(4-ethoxyphenyl)-1H-benzimidazol-5-yl)-5-(1H-pyrrol-1-yl)isoindolin-1-one] | 1194 | — | 
8 | CCOc1ccc(-c2nc3cc(N4Cc5cc(N(CC)CC)ccc5C4=O)ccc3[nH]2)cc1 [Example 64, 5-(diethylamino)-2-(2-(4-ethoxyphenyl)-1H-benzimidazol-5-yl)isoindolin-1-one] | 1328 | — | 
9 | CCOc1ccc(-c2nc3cc(N4Cc5cc(N6CCCCC6)ccc5C4=O)ccc3[nH]2)cc1 [Example 65, 2-(2-(4-ethoxyphenyl)-1H-benzimidazol-5-yl)-5-(piperidin-1-yl)isoindolin-1-one] | 1245 | 836 | 
10 | COCc1ccc(-c2nc3cc(N4Cc5cc(N6CCOCC6)ccc5C4=O)ccc3[nH]2)cc1 [Example 66, 2-(2-(4-(methoxymethyl)phenyl)-1H-benzimidazol-5-yl)-5-(morpholin-4-yl)isoindolin-1-one] | 1338 | 1358 | 
11 | O=C1c2ccc(N3CCOCC3)cc2CN1c1ccc2[nH]c(-c3ccc(F)cc3)nc2c1 [Example 67, 2-(2-(4-fluorophenyl)-1H-benzimidazol-5-yl)-5-(morpholin-4-yl)isoindolin-1-one] | 1367 | 1188 | 
12 | COc1ccc(-c2nc3cc(N4Cc5cc(N6CCCCC6)ccc5C4=O)ccc3[nH]2)cc1 [Example 68, 2-(2-(4-methoxyphenyl)-1H-benzimidazol-5-yl)-5-(piperidin-1-yl)isoindolin-1-one] | 1301 |  | 
13 | COc1ccc(-c2nc3cc(N4Cc5cc(N6CCOCC6)ccc5C4=O)ccc3[nH]2)cc1 [Example 69, 2-(2-(4-methoxyphenyl)-1H-benzimidazol-5-yl)-5-(morpholin-4-yl)isoindolin-1-one] | 1222 | 1942 | 
14 | COc1ccc(-c2nc3cc(N4Cc5cc(Br)ccc5C4=O)ccc3[nH]2)cc1 [Example 70, 5-bromo-2-(2-(4-methoxyphenyl)-1H-benzimidazol-5-yl)isoindolin-1-one] | 998 | 4335 | 
15 | CCN(CC)c1ccc2c(c1)CN(c1ccc3[nH]c(-c4ccc(OC)cc4)nc3c1)C2=O [Example 71, 5-(diethylamino)-2-(2-(4-methoxyphenyl)-1H-benzimidazol-5-yl)isoindolin-1-one] | 923 | — | 
16 | CCOc1ccc(-c2nc3cc(N4Cc5cc(N6CCOCC6)ccc5C4=O)ccc3[nH]2)cc1 [Example 72, 2-(2-(4-ethoxyphenyl)-1H-benzimidazol-5-yl)-5-(morpholin-4-yl)isoindolin-1-one] | 1370 | 948 | 
17 | O=C1c2ccc(N3CCOCC3)cc2CN1c1ccc2[nH]c(-c3ccccc3)nc2c1 [Example 73, 5-(morpholin-4-yl)-2-(2-phenyl-1H-benzimidazol-5-yl)isoindolin-1-one] | 1231 | 922 | 

Reference: US11401264B2, “Heterocyclic compound” (Orizuru Therapeutics, Inc., priority 2018, dated 2022)
